Source: ChEMBL document CHEMBL2074430, “Transient expression of oatp organic anion transporter in mammalian cells: identification of candidate substrates” (Am J Physiol, 1996)

How the values were obtained:
Type in all cases: functional, cell-based
Conditions in all cases: human
[1] = molecular target: T1, Solute carrier organic anion transporter family member 1A1 (Rattus norvegicus, UniProt P46720); assay: TP_TRANSPORTER: inhibition of BSP uptake (BSP: 1 uM, Aldosterone: 100 uM) in Oatp1-expressing HeLa cells
T1 sequence (P46720 whole entry): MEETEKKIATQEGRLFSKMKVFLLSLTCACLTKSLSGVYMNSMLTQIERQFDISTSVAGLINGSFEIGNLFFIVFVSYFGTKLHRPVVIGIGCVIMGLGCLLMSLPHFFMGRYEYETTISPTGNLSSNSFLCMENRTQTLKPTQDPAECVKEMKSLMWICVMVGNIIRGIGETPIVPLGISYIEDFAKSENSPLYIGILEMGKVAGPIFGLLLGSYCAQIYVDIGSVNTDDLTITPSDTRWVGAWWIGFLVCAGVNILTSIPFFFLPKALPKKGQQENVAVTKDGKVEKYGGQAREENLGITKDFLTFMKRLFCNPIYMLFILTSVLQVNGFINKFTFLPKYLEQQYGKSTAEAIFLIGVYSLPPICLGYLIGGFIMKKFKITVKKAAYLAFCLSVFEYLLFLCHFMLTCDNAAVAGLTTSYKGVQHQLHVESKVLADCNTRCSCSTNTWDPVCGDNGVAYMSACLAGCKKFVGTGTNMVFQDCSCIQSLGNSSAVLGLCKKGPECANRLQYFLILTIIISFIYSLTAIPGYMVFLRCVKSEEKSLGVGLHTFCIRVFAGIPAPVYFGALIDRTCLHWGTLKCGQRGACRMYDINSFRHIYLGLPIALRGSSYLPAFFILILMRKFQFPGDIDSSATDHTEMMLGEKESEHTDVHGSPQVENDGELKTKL

[2] = molecular target: T1, Solute carrier organic anion transporter family member 1A1; assay: TP_TRANSPORTER: uptake in Oatp1-expressing HeLa cells
[3] = molecular target: T1, Solute carrier organic anion transporter family member 1A1; assay: TP_TRANSPORTER: inhibition of BSP uptake (BSP: 1 uM, Corticosterone: 100 uM) in Oatp1-expressing HeLa cells
[4] = molecular target: T1, Solute carrier organic anion transporter family member 1A1; assay: TP_TRANSPORTER: inhibition of BSP uptake (BSP: 1 uM, Hydrocortisone: 100 uM) in Oatp1-expressing HeLa cells
[5] = molecular target: T1, Solute carrier organic anion transporter family member 1A1; assay: TP_TRANSPORTER: inhibition of BSP uptake (BSP: 1 uM, Spironolactone: 100 uM) in Oatp1-expressing HeLa cells

## C[C@]12CCC(=O)C=C1CC[C@@H]1[C@@H]2[C@@H](O)C[C@]2(C=O)[C@@H](C(=O)CO)CC[C@@H]12 [ALDOSTERONE]
[1]
  Activity: inhibitor [(at a rough estimate) 20 % of control]

## Nc1ccc(C(=O)NCC(=O)O)cc1 [AMINOHIPPURIC ACID]
[2]
  Activity: is not a substrate [-]

## C[C@]12C[C@H](O)[C@H]3[C@@H](CCC4=CC(=O)CC[C@@]43C)[C@@H]1CC[C@@H]2C(=O)CO [CORTICOSTERONE]
[3]
  Activity: inhibitor [(at a rough estimate) 15 % of control]

## CCCCC[C@H](O)/C=C/[C@H]1[C@H](O)CC(=O)[C@@H]1C/C=C\CCCC(=O)O [DINOPROSTONE]
[2]
  Activity: is not a substrate [-]

## C[C@]12CCC(=O)C=C1CC[C@@H]1[C@@H]2[C@@H](O)C[C@@]2(C)[C@H]1CC[C@]2(O)C(=O)CO [HYDROCORTISONE]
[4]
  Activity: inhibitor [(at a rough estimate) 30 % of control]

## CC(=O)S[C@@H]1CC2=CC(=O)CC[C@]2(C)[C@H]2CC[C@@]3(C)[C@@H](CC[C@@]34CCC(=O)O4)[C@H]12 [SPIRONOLACTONE]
[5]
  Activity: inhibitor [(at a rough estimate) 10 % of control]
